For assay [1], the system named is HMGB1. Kind of assay: HMGB1 quantitation from keratinocytes (ELISA, normalized to total protein). The class given is cell-based. The settings on record: for change in HMGB1 level relative to the control (in words): keratinocytes contacted with test agent at different concentrations; for HMGB1 (pg)/protein (ug): keratinocytes, vehicle control 54. On the procedure: Make a 210 mL suspension of keratinocytes at 40,000 cells/mL using suitable media to make a cell suspension. Place 2 mL of the cell suspension into the appropriate number of wells of one or more 12-well plates as needed, using the same velocity and insertion angle for each well as cells are pipetted. Incubate the 12-well plates overnight at 37° C. If the cell plating quality is poor (e.g., cells are not attached to plate or seeding density is uneven), discard and start over. Prepare a dosing media by diluting the test agent to the desired concentration (e.g., from 0.0001% to 10%) in a suitable media (e.g., the same media used to make the cell suspension). […] It is not uncommon for skin care actives to be included in skin care compositions at these levels. Optionally, include sufficient solublizer to provide 0.1% solublizer in the test sample. Add 2 mL of dosing media into each well of a 12-well plate and incubate at 4° C. overnight or until test agent is to be added to the test sample. Place prepared dosing media in the 37° C. incubator for at least 30 minutes, or until pH has equalized. When dosing media is warmed and at proper pH, dose the cells. Incubate the dosed cells at 37° C. for 6 hours. Keratinocytes (or other cells) are plated out in 12 well plates as described above with a seeding density of about 200,000 cells/well and incubated overnight at 37° C. with 5% CO2. The keratinocytes are dosed with a dosing medium containing the test agent and the plates returned to the incubator for another 20 hours. The supernatant for each is collected and the HMGB1 level analyzed using ELISA (USCN Life Sciences) in accordance with manufacturer's instructions. The cells are lysed with Glo Lysis Buffer (Promega) and the protein levels determined using a PIERCE brand bicinchoninic acid protein assay kit per manufacturer's instructions. The values of HMGB1 determined by ELISA and normalized to total protein levels from the cells.

Assay [2] concerns primary human melanocytes. Kind of assay: Melanocyte dendricity and size measurements (Incucyte ZOOM live cell imaging). Format: cell-based. From the text: The ability of a test agent to inhibit dendricity and cell body growth in melanocytes may be determined by contacting a sample of melanocytes with the test agent, measuring the change in dendricity and/or cell body growth and comparing the measured indicator to a control to determine if the test agent is identified as a skin tone agent. In some instances, it is important for the test sample to include a source of HMGB1. For example, an amount of HMGB1 (e.g., recombinant HIS-tagged HMGB1 available from Sigma) may be included in the test sample (e.g., at a final level of 0.1 μg/mL), or the test sample may include another type of cell, which can be stimulated to produce HMGB1. A control may be obtained by measuring the dendricity and/or cell body size of the melanocytes prior to contact with the test agent, measuring the dendricity and/or cell body size of the melanocytes in a control sample and/or from the dendricity and/or cell body size of melanocytes published in scientific literature, if available.
Primary human melanocytes (ATCC) are cultured for 2 passages in T150 flasks. For dendricity experiments, melanocytes are plated into 96 well plates (clear) at a density of about 5000 cells/well. The plates are placed into an Incucyte ZOOM® live cell imaging system (Essen Bioscience, Ann Arbor, Mich.) which resides inside a 37° C., 5% CO2 incubator. 20× images are collected every hour using the phase mode. The Neurite Outgrowth Software Package (Essen) is used to measure cell body size, dendrite length, and cell numbers.

Setting [3] is: melanocytes contacted with HMGB1 vs control / before treatment, span of three days.

Entries after “also recorded” stand apart in the source; their conditions may differ.

Consider hydroxycinnamic acid [HCA], for which the “change in HMGB1 level relative to the control (in words)” value in assay [1] is on record as “significantly reduced HMGB1 levels relative to the control”. Also, the “HMGB1 (pg)/protein (ug)” value in assay [1] (test agent at 0.001%) was 29 pg/µg; in assay [1] (test agent at 0.005%) it was 6 pg/µg; in assay [1] (test agent at 0.02%), 2 pg/µg.
Consider methyl hydroxycinnamic acid [ME-HCA], for which the “change in HMGB1 level relative to the control (in words)” value in assay [1] is “significantly reduced HMGB1 levels relative to the control”. Further, the “HMGB1 (pg)/protein (ug)” value in assay [1] (test agent at 0.001%) amounted to 33 pg/µg; in assay [1] (test agent at 0.005%) it was 28 pg/µg; in assay [1] (test agent at 0.02%), 4 pg/µg.

B1: HMGB1: high-mobility group protein B1, SEQ ID NO: 1; recombinant HIS-tagged HMGB1 available from Sigma (protein, listed as Homo sapiens)
chain: MGKGDPKKPRGKMSSYAFFVQTCREEHKKKHPDASVNFSEFSKKCSERWKTMSAKEKGKFEDMAKADKARYEREMKTYIPPKGETKKKFKDPNAPKRPPSAFFLFCSEYRPKIKGEHPGLSIGDVAKKLGEMWNNTAADDKQPYEKKAAKLKEKYEKDIAAYRAKGKPDAAKKGVVKAEKSKKKKEEEEDEEDEEDEEEEEDEEDEDEEEDDDDE
modifications: His tag
notes: recombinant HIS-tagged HMGB1 available from Sigma
Consider B1, for which, in assay [2] (setting [3]), the “cell body size of melanocytes” value was “significantly larger cell body size relative to the control; also recorded: increased dendricity and cell body size”; the “dendricity (dendrite length) of melanocytes” value was “significantly longer dendrites relative to the control; also recorded: increased dendricity”. The melanocyte proliferation result in assay [2] (primary human melanocytes contacted with HMGB1) is reported as “without enhancing melanocyte proliferation”.

The values above are taken from patent US10054582B2, “Compositions and methods for inhibiting HMGB1 activation of melanocytes” (The Procter & Gamble Company, priority 2014, dated 2018).
